# Assay results from patent publication US8758816B2, “Compositions comprising azelastine and methods of use thereof” (priority 2004, dated 2014).
# Test system: patients with seasonal allergic rhinitis (SAR)
# Assay: MP 428 study: individual symptom severity scores (runny nose, itchy nose, sneezing, congestion; 0-3 scale)
# Type: in vivo, human
# Details: Intent-to-Treat Population
# Experimental: A two-week, randomized, double-blind study, which evaluated the effects of the co-administration of ASTELIN® (azelastine hydrochloride (HCl)) and FLONASE® (fluticasone propionate) compared to either product alone in patients with seasonal allergic rhinitis (SAR) was conducted during the 2006 Texas mountain cedar season. After a 5-day placebo lead-in period, 151 patients with moderate-to-severe allergic rhinitis symptoms were randomized to either: (1) (49 total patients) ASTELIN® (azelastine hydrochloride (HCl)) plus placebo saline nasal spray 2 sprays per nostril, 15 minutes apart, twice daily (AM & PM); (2) (50 total patients) FLONASE® (fluticasone propionate) plus placebo saline nasal spray, 2 sprays per nostril, 15 minutes apart, once daily (AM) and two sessions of placebo saline nasal spray, 2 sprays per nostril, 15 minutes apart (PM); or (3) (52 total patients) the co-administration of ASTELIN® (azelastine hydrochloride (HCl)) 2 sprays per nostril plus FLONASE® (fluticasone propionate) 2 sprays per nostril (AM), 15 minutes apart, and ASTELIN® (azelastine hydrochloride (HCl)) 2 sprays per nostril plus placebo saline nasal spray, 15 minutes apart, (PM) for a 2-week double-blind treatment period.
# The primary efficacy variable was the change from baseline in the Total Nasal Symptom Score (TNSS), which comprised sneezing, itchy nose, runny nose, and nasal congestion (individual symptoms scores were assigned a value between 0 and 3, where 0=no symptoms and 3=severe symptoms). This study was not statistically designed to assess the differences between ASTELIN® and FLONASE®.
# The results of the clinical trial are summarized and presented in Appendix A hereinbelow and in FIGS. 1-6. […] FIGS. 2-5 show the mean improvement in severity score (0-3 scale) from baseline for the symptoms of runny nose, itchy nose, sneezing and congestion, respectively.
structure (smiles),measurement,setting,value
"CCC(=O)O[C@]1(C(=O)SCF)[C@H](C)C[C@H]2[C@@H]3C[C@H](F)C4=CC(=O)C=C[C@]4(C)[C@@]3(F)[C@@H](O)C[C@@]21C [Fluticasone, fluticasone propionate]","Change from Baseline in AM and PM Combined Nasal Symptom Score: Congestion, LS Mean",Day 9,−1.19
same,"Change from Baseline in AM and PM Combined Nasal Symptom Score: Congestion, Mean",Day 9,−1.22
same,"Change from Baseline in AM and PM Combined Nasal Symptom Score: Congestion, Median",Day 9,−1.27
same,"Change from Baseline in AM and PM Combined Nasal Symptom Score: Itchy Nose, LS Mean",Day 9,−1.40
same,"Change from Baseline in AM and PM Combined Nasal Symptom Score: Itchy Nose, Mean",Day 9,−1.35
same,"Change from Baseline in AM and PM Combined Nasal Symptom Score: Itchy Nose, Median",Day 9,−1.30
same,"Change from Baseline in AM and PM Combined Nasal Symptom Score: Runny Nose, LS Mean",Day 9,−1.18
same,"Change from Baseline in AM and PM Combined Nasal Symptom Score: Runny Nose, Mean",Day 9,−1.21
same,"Change from Baseline in AM and PM Combined Nasal Symptom Score: Runny Nose, Median",Day 9,−1.00
same,"Change from Baseline in AM and PM Combined Nasal Symptom Score: Sneezing, LS Mean",Day 9,−1.40
same,"Change from Baseline in AM and PM Combined Nasal Symptom Score: Sneezing, Mean",Day 9,−1.29
same,"Change from Baseline in AM and PM Combined Nasal Symptom Score: Sneezing, Median",Day 9,−1.40
same,"Percent Change from Baseline in AM and PM Combined Nasal Symptom Score: Congestion, LS Mean",Day 9,−22.17%
same,"Percent Change from Baseline in AM and PM Combined Nasal Symptom Score: Congestion, Mean",Day 9,−22.28%
same,"Percent Change from Baseline in AM and PM Combined Nasal Symptom Score: Congestion, Median",Day 9,−24.05%
same,"Percent Change from Baseline in AM and PM Combined Nasal Symptom Score: Itchy Nose, LS Mean",Day 9,−29.96%
same,"Percent Change from Baseline in AM and PM Combined Nasal Symptom Score: Itchy Nose, Mean",Day 9,−28.73%
same,"Percent Change from Baseline in AM and PM Combined Nasal Symptom Score: Itchy Nose, Median",Day 9,−31.23%
same,"Percent Change from Baseline in AM and PM Combined Nasal Symptom Score: Runny Nose, LS Mean",Day 9,−18.79%
same,"Percent Change from Baseline in AM and PM Combined Nasal Symptom Score: Runny Nose, Mean",Day 9,−19.22%
same,"Percent Change from Baseline in AM and PM Combined Nasal Symptom Score: Runny Nose, Median",Day 9,−16.67%
same,"Percent Change from Baseline in AM and PM Combined Nasal Symptom Score: Sneezing, LS Mean",Day 9,−29.73%
same,"Percent Change from Baseline in AM and PM Combined Nasal Symptom Score: Sneezing, Mean",Day 9,−28.22%
same,"Percent Change from Baseline in AM and PM Combined Nasal Symptom Score: Sneezing, Median",Day 9,−32.58%
same,"Change from Baseline in AM and PM Combined Nasal Symptom Score: Congestion, LS Mean",Day 10,−1.34
same,"Change from Baseline in AM and PM Combined Nasal Symptom Score: Congestion, Mean",Day 10,−1.39
same,"Change from Baseline in AM and PM Combined Nasal Symptom Score: Congestion, Median",Day 10,−1.50
same,"Change from Baseline in AM and PM Combined Nasal Symptom Score: Itchy Nose, LS Mean",Day 10,−1.21
same,"Change from Baseline in AM and PM Combined Nasal Symptom Score: Itchy Nose, Mean",Day 10,−1.19
same,"Change from Baseline in AM and PM Combined Nasal Symptom Score: Itchy Nose, Median",Day 10,−1.00
same,"Change from Baseline in AM and PM Combined Nasal Symptom Score: Runny Nose, LS Mean",Day 10,−1.52
same,"Change from Baseline in AM and PM Combined Nasal Symptom Score: Runny Nose, Mean",Day 10,−1.54
same,"Change from Baseline in AM and PM Combined Nasal Symptom Score: Runny Nose, Median",Day 10,−1.45
same,"Change from Baseline in AM and PM Combined Nasal Symptom Score: Sneezing, LS Mean",Day 10,−1.57
same,"Change from Baseline in AM and PM Combined Nasal Symptom Score: Sneezing, Mean",Day 10,−1.50
same,"Change from Baseline in AM and PM Combined Nasal Symptom Score: Sneezing, Median",Day 10,−1.58
same,"Percent Change from Baseline in AM and PM Combined Nasal Symptom Score: Congestion, LS Mean",Day 10,−24.97%
same,"Percent Change from Baseline in AM and PM Combined Nasal Symptom Score: Congestion, Mean",Day 10,−25.31%
same,"Percent Change from Baseline in AM and PM Combined Nasal Symptom Score: Congestion, Median",Day 10,−27.27%
same,"Percent Change from Baseline in AM and PM Combined Nasal Symptom Score: Itchy Nose, LS Mean",Day 10,−23.04%
same,"Percent Change from Baseline in AM and PM Combined Nasal Symptom Score: Itchy Nose, Mean",Day 10,−22.79%
same,"Percent Change from Baseline in AM and PM Combined Nasal Symptom Score: Itchy Nose, Median",Day 10,−18.99%
same,"Percent Change from Baseline in AM and PM Combined Nasal Symptom Score: Runny Nose, LS Mean",Day 10,−26.05%
same,"Percent Change from Baseline in AM and PM Combined Nasal Symptom Score: Runny Nose, Mean",Day 10,−26.39%
same,"Percent Change from Baseline in AM and PM Combined Nasal Symptom Score: Runny Nose, Median",Day 10,−29.13%
same,"Percent Change from Baseline in AM and PM Combined Nasal Symptom Score: Sneezing, LS Mean",Day 10,−31.65%
same,"Percent Change from Baseline in AM and PM Combined Nasal Symptom Score: Sneezing, Mean",Day 10,−31.17%
same,"Percent Change from Baseline in AM and PM Combined Nasal Symptom Score: Sneezing, Median",Day 10,−33.33%
same,"Change from Baseline in AM and PM Combined Nasal Symptom Score: Congestion, LS Mean",Day 11,−1.22
same,"Change from Baseline in AM and PM Combined Nasal Symptom Score: Congestion, Mean",Day 11,−1.28
same,"Change from Baseline in AM and PM Combined Nasal Symptom Score: Congestion, Median",Day 11,−1.27
same,"Change from Baseline in AM and PM Combined Nasal Symptom Score: Itchy Nose, LS Mean",Day 11,−1.33
same,"Change from Baseline in AM and PM Combined Nasal Symptom Score: Itchy Nose, Mean",Day 11,−1.29
same,"Change from Baseline in AM and PM Combined Nasal Symptom Score: Itchy Nose, Median",Day 11,−1.08
same,"Change from Baseline in AM and PM Combined Nasal Symptom Score: Runny Nose, LS Mean",Day 11,−1.51
same,"Change from Baseline in AM and PM Combined Nasal Symptom Score: Runny Nose, Mean",Day 11,−1.54
same,"Change from Baseline in AM and PM Combined Nasal Symptom Score: Runny Nose, Median",Day 11,−1.42
same,"Change from Baseline in AM and PM Combined Nasal Symptom Score: Sneezing, LS Mean",Day 11,−1.78
same,"Change from Baseline in AM and PM Combined Nasal Symptom Score: Sneezing, Mean",Day 11,−1.66
same,"Change from Baseline in AM and PM Combined Nasal Symptom Score: Sneezing, Median",Day 11,−1.83
same,"Percent Change from Baseline in AM and PM Combined Nasal Symptom Score: Congestion, LS Mean",Day 11,−22.54%
same,"Percent Change from Baseline in AM and PM Combined Nasal Symptom Score: Congestion, Mean",Day 11,−23.45%
same,"Percent Change from Baseline in AM and PM Combined Nasal Symptom Score: Congestion, Median",Day 11,−24.05%
same,"Percent Change from Baseline in AM and PM Combined Nasal Symptom Score: Itchy Nose, LS Mean",Day 11,−26.56%
same,"Percent Change from Baseline in AM and PM Combined Nasal Symptom Score: Itchy Nose, Mean",Day 11,−25.70%
same,"Percent Change from Baseline in AM and PM Combined Nasal Symptom Score: Itchy Nose, Median",Day 11,−27.36%
same,"Percent Change from Baseline in AM and PM Combined Nasal Symptom Score: Runny Nose, LS Mean",Day 11,−31.56%
same,"Percent Change from Baseline in AM and PM Combined Nasal Symptom Score: Runny Nose, Mean",Day 11,−31.74%
same,"Percent Change from Baseline in AM and PM Combined Nasal Symptom Score: Runny Nose, Median",Day 11,−33.33%
same,"Percent Change from Baseline in AM and PM Combined Nasal Symptom Score: Sneezing, LS Mean",Day 11,−35.11%
same,"Percent Change from Baseline in AM and PM Combined Nasal Symptom Score: Sneezing, Mean",Day 11,−33.52%
same,"Percent Change from Baseline in AM and PM Combined Nasal Symptom Score: Sneezing, Median",Day 11,−36.05%
same,"Change from Baseline in AM and PM Combined Nasal Symptom Score: Congestion, LS Mean",Day 12,−1.41
same,"Change from Baseline in AM and PM Combined Nasal Symptom Score: Congestion, Mean",Day 12,−1.49
same,"Change from Baseline in AM and PM Combined Nasal Symptom Score: Congestion, Median",Day 12,−1.55
same,"Change from Baseline in AM and PM Combined Nasal Symptom Score: Itchy Nose, LS Mean",Day 12,−1.50
same,"Change from Baseline in AM and PM Combined Nasal Symptom Score: Itchy Nose, Mean",Day 12,−1.48
same,"Change from Baseline in AM and PM Combined Nasal Symptom Score: Itchy Nose, Median",Day 12,−1.17
same,"Change from Baseline in AM and PM Combined Nasal Symptom Score: Runny Nose, LS Mean",Day 12,−1.54
same,"Change from Baseline in AM and PM Combined Nasal Symptom Score: Runny Nose, Mean",Day 12,−1.58
same,"Change from Baseline in AM and PM Combined Nasal Symptom Score: Runny Nose, Median",Day 12,−1.35
same,"Change from Baseline in AM and PM Combined Nasal Symptom Score: Sneezing, LS Mean",Day 12,−1.68
same,"Change from Baseline in AM and PM Combined Nasal Symptom Score: Sneezing, Mean",Day 12,−1.54
same,"Change from Baseline in AM and PM Combined Nasal Symptom Score: Sneezing, Median",Day 12,−1.80
